From publication PMC7825511, “Design Strategy for the EPR Tumor-Targeting of 1,2-Bis(sulfonyl)-1-alkylhydrazines” (Molecules, 2021)

What was measured:
matching cell lines = details: cited from earlier work; for increase in the IC50 value resulting from MGMT expression: same matching cell lines with/without MGMT expression
[1] = Linker half-life determination by spectrophotometric proton release assay (spontaneous hydrolysis); type: physicochemical; details: buffer; 37 °C, pH 7.4; low molecular weight 90CE prodrugs with different N-2 substituents; read-out: Half-life (h) 37°C pH 7.4 (spontaneous hydrolysis) (converted)
Method: Linker half-life determination. The hydrolytic half-lives of several proposed linker moieties were determined using the proton release assay. The results are given in (Figure 4), several possible linkers with suitably long half-live values (40–300 h) were identified.
Decomposition kinetics. The kinetics of decomposition of various compounds and intermediates under various conditions can be followed using a spectrophotometric proton release assay. This is the preferred method for relatively short-lived agents as the decomposition can be followed in real time. This method is also suitable for following the decomposition of much longer-lived agents, as long as the reaction vessel/cuvette is sealed to prevent changes in pH due to CO2 absorption/desorption, and the temperature is closely controlled.

[2] = test system: O-6 position of DNA guanine; design: method as in PMID 20654586; details: relative to chloroethylating counterpart 90CE; cited from earlier work

| SMILES | half-life [1] [h] | further results |
| --- | --- | --- |
| O=NN(CCCl)C(=O)NCCCl [bis-chloroethylnitrosourea (BCNU), bis-chloroethylnitrosourea] | – | increase in the IC50 value resulting from MGMT expression (matching cell lines): 2 to 3 fold |
| CN(C)C(=O)N(N(CCCl)S(C)(=O)=O)S(C)(=O)=O [D] | 129 ± 9 | – |
| CS(=O)(=O)N(CCCl)N(C(=O)N1CCCC1)S(C)(=O)=O [F] | > 300 | – |
| CC(=O)N(N(CCCl)S(C)(=O)=O)S(C)(=O)=O [A] | 42.9 ± 2.1 | – |
| CS(=O)(=O)NN(CCCl)S(C)(=O)=O [90CE, 1,2-bis(methylsulfonyl)-1-(2-chloroethyl)hydrazine] | – | MGMT level up to which protection towards the agent is proportional to MGMT activity (matching cell lines): ~ 10,000 MGMT molecules/cell; increase in the IC50 value resulting from MGMT expression (matching cell lines): ~ 20 fold |
| CC1CCC(C)N1C(=O)N(N(CCCl)S(C)(=O)=O)S(C)(=O)=O (stereo not shown) [G] | > 300 | – |
| CN(NS(C)(=O)=O)S(C)(=O)=O [KS90, 1,2-bis(methylsulfonyl)-1-(methyl)hydrazine] | – | molar yield of guanine O-6 alkylations relative to 90CE [2]: 5–6 times |
| CCN(CC)C(=O)N(N(CCCl)S(C)(=O)=O)S(C)(=O)=O [E] | 10.3 ± 0.3 | – |
| COC(=O)N(N(CCCl)S(C)(=O)=O)S(C)(=O)=O [B] | > 300 | – |
| CS(=O)(=O)N(CCCl)N(C(=O)N1CCCCC1)S(C)(=O)=O [H] | 16.2 ± 0.5 | – |
| CS(=O)(=O)N(CCCl)N(C(=O)N1CCOCC1)S(C)(=O)=O [I] | > 300 | – |
| CNC(=O)N(N(CCCl)S(C)(=O)=O)S(C)(=O)=O [C] | 1.17 ± 0.02 | – |
